The values that follow come from patent publication US20240391909A1, “DISULFIDE COMPOUND, POLYSULFIDE COMPOUND, AND USE THEREOF” (KUMIAI CHEMICAL INDUSTRY CO., LTD., priority 2021, published 2024).

The subject of the assay is Helicoverpa armigera. The assay can be described thus: Insecticidal activity test against Helicoverpa armigera (cabbage leaf dip). Format: in vivo. To be noted: hatched larvae, 25° C., after 6 days. The method, then:
A wettable powder prepared in accordance with Formulation Example 1 was diluted with water to a concentration of 500 ppm as the active ingredient. A cabbage leaf was dipped in the resultant chemical solution, air-dried, and then put in a plastic cup. Five hatched larvae of Helicoverpa armigera were released therein, and the resultant was covered. Thereafter, the resultant was placed in a constant temperature chamber of 25° C., and after 6 days, the number of dead larvae was counted to obtain a corrected mortality rate in accordance with the following equation of Expression 1. The test was performed in duplicate.

Where [1] appears, read: 500 ppm active ingredient, same test run with comparative formula A, 2-a retested at the same time.

As for `Cn1nc(C(F)(F)F)c(CSSCc2c(C(F)(F)F)nn(C)c2OC(F)F)c1OC(F)F` [Compound 2-a, 1,2-bis[(5-difluoromethoxy-1-methyl-3-trifluoromethylpyrazol-4-yl)methyl]disulfide], the corrected mortality rate was 75% (500 ppm active ingredient (wettable powder diluted with water), first test) and 89% under setting [1]. With `Cc1cc(CSSCc2cc(C)[nH]n2)n[nH]1` [formula A, reference compound], under setting [1], the corrected mortality rate is recorded as 44%.
